Results from patent US8129366B2, “VLA-4 inhibitory drug” (Daiichi Sankyo Company, Limited, priority 2005, dated 2012).

Molecular target: T1, hα4 and β1 integrins (Homo sapiens, UniProt P05556+P13612)
T1 construct: expressed in transfected cells; host or cells: CHO cells
Experiment: In vitro inhibition of binding between CHO cells expressing hα4 and β1 integrins and Eu3+-hVCAM-1 D1D7-IgG
Conditions: for Ki: CHO cells expressing hα4 and β1 integrins, Eu3+-hVCAM-1 D1D7-IgG ligand, without HSA; for IC50: in the presence of 3% human serum albumin (HSA final concentration 3%)
In short: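 Bound europium-labelled VCAM-1 D1D7-IgG on α4β1-expressing CHO cells was measured by time-resolved fluorescence after washing at 4 °C. Ligand (2 nM working dilution) and test compound, with or without 3% final HSA, were co-incubated for 1 h at room temperature in Mn²⁺-containing HEPES buffer, pH 7.5. IC50 came from % binding inhibition; Ki was calculated from ligand concentration and Scatchard Kd.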

T1 sequence (P13612 34-1032): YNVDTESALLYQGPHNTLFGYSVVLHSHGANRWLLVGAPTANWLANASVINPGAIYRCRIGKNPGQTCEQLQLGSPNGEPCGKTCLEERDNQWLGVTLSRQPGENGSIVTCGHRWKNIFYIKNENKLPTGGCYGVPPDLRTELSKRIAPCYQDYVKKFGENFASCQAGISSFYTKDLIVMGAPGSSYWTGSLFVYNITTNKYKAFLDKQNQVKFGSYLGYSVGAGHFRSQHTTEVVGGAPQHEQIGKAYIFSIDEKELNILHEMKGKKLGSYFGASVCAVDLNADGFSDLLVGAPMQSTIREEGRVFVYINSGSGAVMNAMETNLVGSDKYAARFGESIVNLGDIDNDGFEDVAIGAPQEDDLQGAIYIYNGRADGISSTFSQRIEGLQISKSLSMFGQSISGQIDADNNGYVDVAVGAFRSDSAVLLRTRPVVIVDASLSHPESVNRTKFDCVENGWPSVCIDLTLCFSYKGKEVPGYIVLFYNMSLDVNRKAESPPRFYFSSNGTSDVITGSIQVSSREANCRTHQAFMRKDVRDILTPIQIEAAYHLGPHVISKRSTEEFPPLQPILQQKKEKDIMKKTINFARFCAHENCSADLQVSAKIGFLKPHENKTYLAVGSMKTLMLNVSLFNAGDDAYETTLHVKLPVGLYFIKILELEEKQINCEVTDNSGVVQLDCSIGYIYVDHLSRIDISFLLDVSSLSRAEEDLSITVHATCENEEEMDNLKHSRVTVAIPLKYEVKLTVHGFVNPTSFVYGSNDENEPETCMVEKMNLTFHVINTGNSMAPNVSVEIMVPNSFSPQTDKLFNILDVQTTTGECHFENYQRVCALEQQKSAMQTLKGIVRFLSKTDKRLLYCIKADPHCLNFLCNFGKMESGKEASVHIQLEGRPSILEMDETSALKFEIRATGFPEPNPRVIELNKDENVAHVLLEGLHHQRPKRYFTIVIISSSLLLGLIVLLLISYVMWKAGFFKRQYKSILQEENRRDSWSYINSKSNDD
T1 sequence (P05556 21-798): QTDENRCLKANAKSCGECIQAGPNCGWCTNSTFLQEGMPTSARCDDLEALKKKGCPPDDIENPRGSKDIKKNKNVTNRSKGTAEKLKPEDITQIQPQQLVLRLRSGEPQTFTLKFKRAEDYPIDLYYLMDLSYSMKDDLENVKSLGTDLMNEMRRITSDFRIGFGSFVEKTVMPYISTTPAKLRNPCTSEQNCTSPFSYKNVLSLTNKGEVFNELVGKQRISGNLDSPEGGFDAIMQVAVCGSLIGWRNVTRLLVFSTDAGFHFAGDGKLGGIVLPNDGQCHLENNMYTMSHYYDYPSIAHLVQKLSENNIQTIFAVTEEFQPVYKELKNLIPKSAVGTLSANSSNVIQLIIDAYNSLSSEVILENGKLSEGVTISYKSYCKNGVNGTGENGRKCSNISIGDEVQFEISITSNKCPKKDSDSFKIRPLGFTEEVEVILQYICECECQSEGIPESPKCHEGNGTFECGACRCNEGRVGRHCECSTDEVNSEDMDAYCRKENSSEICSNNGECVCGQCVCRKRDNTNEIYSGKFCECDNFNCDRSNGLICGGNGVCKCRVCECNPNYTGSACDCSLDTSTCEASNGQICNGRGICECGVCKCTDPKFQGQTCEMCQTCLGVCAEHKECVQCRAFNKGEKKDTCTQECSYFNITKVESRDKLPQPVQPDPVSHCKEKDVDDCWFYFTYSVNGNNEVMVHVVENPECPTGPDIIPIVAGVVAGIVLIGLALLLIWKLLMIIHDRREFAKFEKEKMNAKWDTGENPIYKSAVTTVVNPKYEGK

`C[C@@H]1COC[C@H](C)N1[C@H]1C[C@@H](CO[C@H]2CC[C@H](C(=O)O)CC2)N(C(=O)Cc2cc(Cl)c(NC(=O)c3cn(C)c4ccccc34)cc2Cl)C1` [Example 93, Trans-4-[1-[[2,5-dichloro-4-[(1-methyl-1H-indol-3-ylcarbonyl)amino]phenyl]acetyl]-(4S)-(cis-3,5-dimethylmorpholin-4-yl)-(2S)-pyrrolidinylmethoxy]cyclohexanecarboxylic acid] gave a Ki of 3.6 nM and an IC50 of 22 nM.
With `O=C(Nc1cc(Cl)c(CC(=O)N2C[C@@H](N3CCCCC3)C[C@H]2CO[C@H]2CC[C@H](C(=O)O)CC2)cc1Cl)c1csc2ccccc12` [Example 95, Trans-4-[1-[[4-[(benzo[b]thiophen-3-ylcarbonyl)amino]-2,5-dichlorophenyl]acetyl]-(4S)-(piperidin-1-yl)-(2S)-pyrrolidinylmethoxy]cyclohexanecarboxylic acid] the Ki was 1.3 nM and the IC50 was 5.3 nM.
With `Cn1cc(C(=O)Nc2cc(Cl)c(CC(=O)N3C[C@@H](N4CCCCC4)C[C@H]3CO[C@H]3CC[C@H](C(=O)O)CC3)cc2Cl)c2ccccc21` [Example 96, Trans-4-[1-[[2,5-dichloro-4-[(1-methyl-1H-indol-3-ylcarbonyl)amino]phenyl]acetyl]-(4S)-(piperidin-1-yl)-(2S)-pyrrolidinylmethoxy]cyclohexanecarboxylic acid] the Ki was 3.9 nM and the IC50 was 7.4 nM.
For `CCO[C@H]1[C@H](N2CCCCC2)CN(C(=O)Cc2cc(Cl)c(NC(=O)c3cn(C)c4ccccc34)cc2F)[C@@H]1CO[C@H]1CC[C@H](C(=O)O)CC1` [Example 97, Trans-4-[1-[[5-chloro-2-fluoro-4-[(1-methyl-1H-indol-3-ylcarbonyl)amino]phenyl]acetyl]-(3R)-ethoxy-(4R)-(piperidin-1-yl)-(2R)-pyrrolidinylmethoxy]cyclohexanecarboxylic acid], the Ki was 1.6 nM and the IC50 was 4.9 nM.
With `CC1CCN([C@H]2C[C@@H](CO[C@H]3CC[C@H](C(=O)O)CC3)N(C(=O)Cc3cc(Cl)c(NC(=O)c4csc5ccccc45)cc3F)C2)CC1` [Example 98, Trans-4-[1-[[4-[(benzo[b]thiophen-3-ylcarbonyl)amino]-5-chloro-2-fluorophenyl]acetyl]-(4S)-(4-methylpiperidin-1-yl)-(2S)-pyrrolidinylmethoxy]cyclohexanecarboxylic acid] the Ki was 0.89 nM and the IC50 was 3 nM.
For `O=C(Nc1cc(F)c(CC(=O)N2C[C@@H](N3CCC(F)CC3)C[C@H]2CO[C@H]2CC[C@H](C(=O)O)CC2)cc1Cl)c1csc2ccccc12` [Example 100, Trans-4-[1-[[4-[(benzo[b]thiophen-3-ylcarbonyl)amino]-5-chloro-2-fluorophenyl]acetyl]-(4S)-(4-fluoropiperidin-1-yl)-(2S)-pyrrolidinylmethoxy]cyclohexanecarboxylic acid], the Ki was 0.91 nM and the IC50 was 3.9 nM.
For `Cn1cc(C(=O)Nc2cc(F)c(CC(=O)N3C[C@@H](N4CCC(F)(F)CC4)C[C@H]3CO[C@H]3CC[C@H](C(=O)O)CC3)cc2Cl)c2ccccc21` [Example 101, Trans-4-[1-[[5-chloro-2-fluoro-4-[(1-methyl-1H-indol-3-ylcarbonyl)amino]phenyl]acetyl]-(4S)-(4,4-difluoropiperidin-1-yl)-(2S)-pyrrolidinylmethoxy]cyclohexanecarboxylic acid], the Ki was 4 nM and the IC50 was 17 nM.
`O=C(Nc1cc(F)c(CC(=O)N2C[C@@H](N3CCC(Oc4ccccc4)CC3)C[C@H]2CO[C@H]2CC[C@H](C(=O)O)CC2)cc1Cl)c1csc2ccccc12` [Example 102] gave a Ki of 1.2 nM and an IC50 of 33 nM.
`COC1CCN([C@H]2C[C@@H](CC[C@H]3CC[C@H](C(=O)O)CC3)N(C(=O)Cc3cc(Cl)c(NC(=O)c4cn(C)c5ccccc45)cc3Cl)C2)CC1` [Example 104, Trans-4-[2-[1-[[2,5-dichloro-4-[(1-methyl-1H-indol-3-ylcarbonyl)amino]phenyl]acetyl]-(4S)-(4-methoxypiperidin-1-yl)-(2S)-pyrrolidinyl]ethyl]cyclohexanecarboxylic acid] showed a Ki of 4.9 nM and an IC50 of 13 nM.
For `CCOC1CCN([C@H]2C[C@@H](CO[C@H]3CC[C@H](C(=O)O)CC3)N(C(=O)Cc3cc(Cl)c(NC(=O)c4coc5ccccc45)cc3Cl)C2)CC1` [Example 105, Trans-4-[1-[[4-[(benzo[b]furan-3-ylcarbonyl)amino]-2,5-dichlorophenyl]acetyl]-(4S)-(4-ethoxypiperidin-1-yl)-(2S)-pyrrolidinylmethoxy]cyclohexanecarboxylic acid], the Ki was 2 nM and the IC50 was 15 nM.
Work on `Cn1cc(C(=O)Nc2cc(Cl)c(CC(=O)N3C[C@@H](N4CCC(S(C)(=O)=O)CC4)C[C@H]3CO[C@H]3CC[C@H](C(=O)O)CC3)cc2Cl)c2ccccc21` [Example 108, Trans-4-[1-[[2,5-dichloro-4-[(1-methyl-1H-indol-3-ylcarbonyl)amino]phenyl]acetyl]-(4S)-(4-methanesulfonylpiperidin-1-yl)-(2S)-pyrrolidinylmethoxy]cyclohexanecarboxylic acid] yielded a Ki of 3.1 nM and an IC50 of 8.2 nM.
`CN(C)C1CCN([C@H]2C[C@@H](CO[C@H]3CC[C@H](C(=O)O)CC3)N(C(=O)Cc3cc(Cl)c(NC(=O)c4cn(C)c5ccccc45)cc3F)C2)CC1` [Example 109, Trans-4-[1-[[5-chloro-2-fluoro-4-[(1-methyl-1H-indol-3-ylcarbonyl)amino]phenyl]acetyl]-(4S)-[4-(N,N-dimethylamino)piperidin-1-yl]-(2S)-pyrrolidinylmethoxy]cyclohexanecarboxylic acid] was tested, and the Ki was 3.6 nM and the IC50 was 5.2 nM.
In the case of `CN1CCN([C@H]2C[C@@H](CO[C@H]3CC[C@H](C(=O)O)CC3)N(C(=O)Cc3cc(Cl)c(NC(=O)c4csc5ccccc45)cc3F)C2)CC1` [Example 111, Trans-4-[1-[[4-[(benzo[b]thiophen-3-ylcarbonyl)amino]-5-chloro-2-fluorophenyl]acetyl]-(4S)-(4-methylpiperazin-1-yl)-(2S)-pyrrolidinylmethoxy]cyclohexanecarboxylic acid], the Ki is reported as 0.29 nM and the IC50 is reported as 1.2 nM.
`CN1CCN([C@H]2C[C@@H](CO[C@H]3CC[C@H](C(=O)O)CC3)N(C(=O)Cc3cc(Cl)c(NC(=O)c4cn(C)c5ccccc45)cc3Cl)C2)CC1` [Example 112, Trans-4-[1-[[2,5-dichloro-4-[(1-methyl-1H-indol-3-ylcarbonyl)amino]phenyl]acetyl]-(4S)-(4-methylpiperazin-1-yl)-(2S)-pyrrolidinylmethoxy]cyclohexanecarboxylic acid] gave a Ki of 4.2 nM and an IC50 of 9.5 nM.
`CC(C)(C)N1CCN([C@H]2C[C@@H](CO[C@H]3CC[C@H](C(=O)O)CC3)N(C(=O)Cc3cc(Cl)c(NC(=O)c4coc5ccccc45)cc3Cl)C2)CC1` [Example 114, Trans-4-[1-[[4-[(benzo[b]furan-3-ylcarbonyl)amino]-2,5-dichlorophenyl]acetyl]-(4S)-[4-(tert-butyl)piperazin-1-yl]-(2S)-pyrrolidinylmethoxy]cyclohexanecarboxylic acid] gave a Ki of 3 nM and an IC50 of 8.9 nM.
`Cn1cc(C(=O)Nc2cc(Cl)c(CC(=O)N3C[C@@H](N4CCN(CC5CC5)CC4)C[C@H]3CO[C@H]3CC[C@H](C(=O)O)CC3)cc2Cl)c2ccccc21` [Example 115, Trans-4-[1-[[2,5-dichloro-4-[(1-methyl-1H-indol-3-ylcarbonyl)amino]phenyl]acetyl]-(4S)-[(4-cyclopropylmethyl)piperazin-1-yl]-(2S)-pyrrolidinylmethoxy]cyclohexanecarboxylic acid] showed a Ki of 4.2 nM and an IC50 of 13 nM.
`O=C(Nc1cc(F)c(CC(=O)N2C[C@@H](N3CCN(Cc4ccccc4)CC3)C[C@H]2CO[C@H]2CC[C@H](C(=O)O)CC2)cc1Cl)c1csc2ccccc12` [Example 116, Trans-4-[(4S)-(4-benzylpiperazin-1-yl)-1-[[4-[(benzo[b]thiophen-3-ylcarbonyl)amino]-5-chloro-2-fluorophenyl]acetyl]-(2S)-pyrrolidinylmethoxy]cyclohexanecarboxylic acid] gave a Ki of 0.6 nM and an IC50 of 21 nM.
In the case of `Cn1cc(C(=O)Nc2cc(Cl)c(CC(=O)N3C[C@@H](N4CCN(CCF)CC4)C[C@H]3CO[C@H]3CC[C@H](C(=O)O)CC3)cc2Cl)c2ccccc21` [Example 117, Trans-4-[1-[[2,5-dichloro-4-[(1-methyl-1H-indol-3-ylcarbonyl)amino]phenyl]acetyl]-(4S)-[4-(2-fluoroethyl)piperazin-1-yl]-(2S)-pyrrolidinylmethoxy]cyclohexanecarboxylic acid], the Ki is reported as 4.5 nM and the IC50 is reported as 12 nM.
For `Cn1cc(C(=O)Nc2cc(Cl)c(CC(=O)N3C[C@@H](N4CCN(C(C)(C)CF)CC4)C[C@H]3CO[C@H]3CC[C@H](C(=O)O)CC3)cc2Cl)c2ccccc21` [Example 119, Trans-4-[1-[[2,5-dichloro-4-[(1-methyl-1H-indol-3-ylcarbonyl)amino]phenyl]acetyl]-(4S)-[4-(1,1-dimethyl-2-fluoroethyl)piperazin-1-yl]-(2S)-pyrrolidinylmethoxy]cyclohexanecarboxylic acid], the Ki was 4.5 nM and the IC50 was 20 nM.
`Cn1cc(C(=O)Nc2cc(Cl)c(CC(=O)N3C[C@@H](N4CCN(CC(F)F)CC4)C[C@H]3CO[C@H]3CC[C@H](C(=O)O)CC3)cc2Cl)c2ccccc21` [Example 120, Trans-4-[1-[[2,5-dichloro-4-[(1-methyl-1H-indol-3-ylcarbonyl)amino]phenyl]acetyl]-(4S)-[4-(2,2-difluoroethyl)piperazin-1-yl]-(2S)-pyrrolidinylmethoxy]cyclohexanecarboxylic acid] gave a Ki of 3.8 nM and an IC50 of 16 nM.
`Cn1cc(C(=O)Nc2cc(F)c(CC(=O)N3C[C@@H](N4CCN(CC(F)F)CC4)C[C@H]3CO[C@H]3CC[C@H](C(=O)O)CC3)cc2Cl)c2ccccc21` [Example 121, Trans-4-[1-[[5-chloro-2-fluoro-4-[(1-methyl-1H-indol-3-ylcarbonyl)amino]phenyl]acetyl]-(4S)-[4-(2,2-difluoroethyl)piperazin-1-yl]-(2S)-pyrrolidinylmethoxy]cyclohexanecarboxylic acid] was tested, and the Ki was 3.2 nM and the IC50 was 11 nM.
